From US7223759B2, “Antibacterial 3,5-diaminopiperidine-substituted aromatic and heteroaromatic compounds” (Anadys Pharmaceuticals, Inc., priority 2003, dated 2007)
Where two headings read alike, the source gives them in different places.

Test system: Escherichia coli (ATCC25922) or Staphylococcus aureus (ATCC25923)
Assay: Antibacterial MIC, microdilution method in Mueller-Hinton medium
Type: cell-based
Conditions: for MIC: Escherichia coli, 18 h, read-out: Potency (MIC)
Method in brief: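 Read after 18 h incubation at 35° C, MIC is the lowest compound level that blocked growth. Compounds were tested in duplicate over 64–0.5 μg/ml two-fold dilutions using Mueller-Hinton microdilution per NCCLS standard.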

[1] = MIC in E. coli or S. aureus, two-fold serial dilutions 64 to 0.5 μg/ml in duplicate, 18 hours of incubation at 35° C.

Row | Structure (SMILES) | MIC [µg/mL] | MIC [1] [µg/mL] | also measured
1 | N[C@@H]1C[C@H](N)CN(c2nc(Nc3ccc(NC(=O)c4ccc(F)cc4O)cc3)nc(N3C[C@H](N)C[C@H](N)C3)n2)C1 [N-[4-(4-fluoro-2-hydroxy-benzoylamino)-phenyl]-4,6-Bis-((3R,5S)-3,5-diamino-piperidin-1-yl)-[1,3,5]triazine-2-amine] | < 16 | – | –
2 | Cc1ccc(C(=O)Nc2ccc(Nc3nc(N4CCCCC4)nc(N4CCCC4)n3)cc2O)cc1.Cl [drawing 244, N-{4-[4-((3R,5S)-3,5-Diamino-piperidin-1-yl)-6-((3R,4S)-3,4-dihydrooxy-pyrrolidin-1-yl)-[1,3,5]triazin-2-ylamino]-2-hydroxy-phenyl}-4-methyl-benzamide] | – | > 64 | –
3 | Cl.NC1C[C@@H](N)CN(c2nc(Nc3ccc(O)cc3[N+](=O)[O-])nc(N3C[C@H](N)C[C@H](N)C3)n2)C1 (stereo in doubt) [N-(4-hydroxy-2-nitro-phenyl)-4,6-Bis-((3R,5S)-3,5-diamino-piperidin-1-yl)-[1,3,5]triazine-2-amine] | – | > 64 | –
4 | CC12CC[C@](C(=O)Nc3ccc(Nc4nc(N5C[C@H](N)C[C@H](N)C5)nc(N5C[C@H](N)C[C@H](N)C5)n4)cc3O)(OC1=O)C2(C)C [(S)-4,7,7-Trimethyl-3-oxo-2-oxa-bicyclo[2.2.1]heptane-1-carboxylic acid {4-[4,6-bis-((3R,5S)-3,5-diamino-piperidin-1-yl)-[1,3,5]triazin-2-ylamino]-2-hydroxy-phenyl}-amide] | – | < 64 | –
5 | N[C@@H]1C[C@H](N)CN(c2nc(Nc3ccc(NC(=O)c4cccnc4O)c(O)c3)nc(N3C[C@H](N)C[C@H](N)C3)n2)C1 [N-{3-hydroxy-4-[(2-hydroxy-pyridine-3-carbonyl)-amino]-phenyl}-4,6-Bis-((3R,5S)-3,5-diamino-piperidin-1-yl)-[1,3,5]triazine-2-amine] | < 16 | – | –
6 | N[C@@H]1C[C@H](N)CN(c2nc(NNc3ccccc3F)nc(N3C[C@H](N)C[C@H](N)C3)n2)C1 [N-(4,6-Bis-((3R,5S)-3,5-diamino-piperidin-1-yl)-[1,3,5]triazin-2-yl)-N′-(2-Fluoro-phenyl)-hydrazine] | > 64 | – | –
7 | COc1ccc(C(=O)Nc2ccc(Nc3nc(N4C[C@H](N)C[C@H](N)C4)nc(N4C[C@H](N)C[C@H](N)C4)n3)cc2)c(O)c1 [N-[4-(2-hydroxy-4-methoxy-benzoylamino)-phenyl]-4,6-Bis-((3R,5S)-3,5-diamino-piperidin-1-yl)-[1,3,5]triazine-2-amine] | > 64 | – | –
8 | Cl.NC(=O)c1ccc(Nc2nc(N3C[C@H](N)C[C@H](N)C3)nc(N3C[C@H](N)C[C@H](N)C3)n2)cc1 [N-(4-carbamoyl-phenyl)-4,6-Bis-((3R,5S)-3,5-diamino-piperidin-1-yl)-[1,3,5]triazine-2-amine] | – | > 64 | –
9 | Cl.N[C@@H]1C[C@H](N)CN(c2nc(Nc3ccccc3F)nc(N3C[C@H](N)C[C@H](N)C3)n2)C1 [N-(2-fluoro-phenyl)-4,6-Bis-((3R,5S)-3,5-diamino-piperidin-1-yl)-[1,3,5]triazine-2-amine] | – | > 64 | –
10 | Cl.N[C@@H]1CC(c2nc(Nc3ccc(C(=O)CC(=O)Nc4ccccc4N4CCOCC4)cc3)nc(N3C[C@H](N)C[C@H](N)C3)n2)C[C@H](N)C1 (stereo partly drawn) [N-{4-[2-(2-morpholin-4-yl-phenylcarbamoyl)-acetyl]-phenytl}-4,6-Bis-((3R,5S)-3,5-diamino-piperidin-1-yl)-[1,3,5]triazine-2-ammine] | – | < 16 | –
11 | N[C@@H]1C[C@H](N)CN(c2nc(Nc3ccc4c(c3)-c3ccccc3C4=O)nc(N3C[C@@H](O)[C@@H](O)C3)n2)C1 [3-[4-((3S,5R)-3,5-Diamino-piperidin-1-yl)-6-((3R,4S)-3,4-dihydroxy-pyrrolidin-1-yl)-[1,3,5]triazin-2-ylamino}-fluoren-9-one] | > 64 | – | –
12 | N[C@@H]1C[C@H](N)CN(c2nc(Nc3ccc(C(=O)CC(=O)NCc4ccc5c(c4)OCO5)cc3)nc(N3C[C@H](N)C[C@H](N)C3)n2)C1 [N-(4-{2-[(benzo[1,3]dioxol-5-ylmethyl)-carbamoyl]-acetyl}-phenyl)-4,6-Bis-((3R,5S)-3,5-diamino-piperidin-1-yl)-[1,3,5]triazine-2-amine] | > 64 | – | –
13 | NC[C@H]1[C@@H](O)CCN1c1nc(Nc2ccc(NC(=O)c3ccc4ccccc4c3O)cc2)nc(N2C[C@H](N)C[C@H](N)C2)n1 [1-Hydroxy-naphthalene-2-carboxylic acid {4-[4-((2S,3S)-2-aminomethyl-3-hydroxy-pyrrolidin-1-yl)-6-((3R,5S)-3,5-diamino-piperidin-1-yl)-[1,3,5]triazin-2-ylamino]-phenyl}-amide] | < 16 | – | –
14 | COc1ccc(Nc2nc(N3C[C@H](N)C[C@H](N)C3)nc(N3C[C@H](N)C[C@H](N)C3)n2)c([N+](=O)[O-])c1 [N-(4-methoxy-2-nitro-phenyl)-4,6-Bis-((3R,5S)-3,5-diamino-piperidin-1-yl)-[1,3,5]triazine-2-amine] | > 64 | – | –
15 | N[C@@H]1C[C@H](N)CN(c2nc(Nc3ccc(NC(=O)c4ccc(Cl)cc4O)c(O)c3)nc(N3C[C@H](N)C[C@H](N)C3)n2)C1 [N-[4-(4-chloro-2-hydroxy-benzoylamino)-3-hydroxy-phenyl]-4,6-Bis-((3R,5S)-3,5-diamino-piperidin-1-yl)-[1,3,5]triazine-2-amine] | < 16 | – | –
16 | CC(=O)c1ccc(Nc2nc(N3C[C@H](N)C[C@H](N)C3)nc(N3C[C@H](CN)C[C@H](CN)C3)n2)cc1 [1-{4-[4-((3S,5R)-3,5-Bis-(aminomethyl)-piperidin-1-tl)-6-((3R,5S)-3,5-diamino-piperidin-1-l)-[1,3,5]triazin-2-ylamino]-phenyl}-ethanone] | – | – | Potency (MIC) [1]: − (− means MIC>64 μg/ml in E. coli or S. aureus)
17 | CC(C)(C)C(=O)Nc1ccc(S(=O)(=O)Nc2ccc(Nc3nc(N4C[C@H](N)C[C@H](N)C4)nc(N4C[C@H](N)C[C@H](N)C4)n3)cc2O)cc1.Cl [N-{4-[4-(2,2-dimethyl-propionylamino)-benzenesulfonylamino]-3-hydroxy-phenyl}-4,6-Bis-((3R,5S)-3,5-diamino-piperidin-1-yl)-[1,3,5]triazine-2-amine] | – | > 64 | –
18 | Cc1cc(Cl)ccc1CNc1nc(N2CCCCC2)nc(N2CCCCC2)n1.Cl [N-(4-chloro-2-methyl-benzyl)-44,6-Bis-((3R,5S)-3,5-diamino-piperidin-1-yl)-[1,3,5]triazine-2-amine] | – | > 64 | –
19 | CN1CCCC1CCNc1nc(N2C[C@H](N)C[C@H](N)C2)nc(N2C[C@H](N)C[C@H](N)C2)n1.Cl (stereo partly drawn) [N-[2-(1-medthyl-pyrrolidin-2-yl)-ethyl]-4,6-Bis-((3R,5S)-3,5-diamino-piperidin-1-yl)-[1,3,5]triazine-2-amine] | – | > 64 | –
20 | Cc1ccc(NNc2nc(N3C[C@H](N)C[C@H](N)C3)nc(N3C[C@H](N)C[C@H](N)C3)n2)cc1 [N-(4,6-Bis-((3R,5S)-3,5-diamino-piperidin-1-yl)-[1,3,5]triazin-2-yl)-N′-p-Tolyl-hydrazine] | < 64 | – | –
21 | NC[C@@H]1C[C@@H](O)CN1c1nc(Nc2ccc(C(=O)CC(=O)Nc3ccc(SC(F)(F)F)cc3)cc2)nc(N2C[C@H](N)C[C@H](N)C2)n1 [3-{4-[4-((2S,4RE)-2-Aminomethyl-4-hydroxy-pyrrolidin-1-yl)-6-((3R,5S)-3,5-diamino-piperidin-1-yl)-[1,3,5]triazin-2-ylamino]-phenyl}-3-oxo-N-(4-trifluoromethylsulfanyl-phenyl)-propionamide] | – | – | Potency (MIC) [1]: ++ (++ means MIC<16 μg/ml in E. coli or S. aureus)
